Patent publication US12421209B2, “Compounds” (Hoffmann-La Roche Inc., priority 2021, dated 2025)

Experiments:
NLRP3 [1] = biological target: T1, NLRP3 (Homo sapiens, UniProt Q96P20); assay: THP-1 cells pyroptosis assay (LPS priming, nigericin, resazurin read-out); format: cell-based; design: Seed THP-1 cells (25,000 cells/well) containing 1.0 μg/ml LPS; host or cells: THP-1 cells; details: 1.0 μg/ml LPS, 5 μM nigericin
Description: THP-1 cells (ATCC #TIB-202) were grown in RPMI containing L-glutamine (Gibco #11835) supplemented with 1 mM sodium pyruvate (Sigma #S8636) and penicillin (100 units/ml)/streptomycin (0.1 mg/ml) (Sigma #P4333) in 10% Fetal Bovine Serum (FBS) (Sigma #F0804). The cells were routinely passaged and grown to confluency (˜10^6 cells/ml). On the day of the experiment, THP-1 cells were harvested and resuspended into RPMI medium (without FBS). The cells were then counted and viability (>90%) checked by Trypan blue (Sigma #T8154). Appropriate dilutions were made to give a concentration of 625,000 cells/ml. To this diluted cell solution was added LPS (Sigma #L4524) to give a lug/ml Final Assay Concentration (FAC). 40 μl of the final preparation was aliquoted into each well of a 96-well plate. The plate thus prepared was used for compound screening.
The following method step-by-step assay was followed for compound screening. • 1. Seed THP-1 cells (25,000 cells/well) containing 1.0 μg/ml LPS in 40 μl of RPMI medium (without FBS) in 96-well, black walled, clear bottom cell culture plates coated with poly-D-lysine (VWR #734-0317) • 2. Add 5 μl compound (8 points half-log dilution, with 10 μM top dose) or vehicle (DMSO 0.1% FAC) to the appropriate wells • 3. Incubate for 3 hours at 37° C., 5% CO2 • 4. Add 5 μl nigericin (Sigma #N7143) (FAC 5 μM) to all wells • 5. Incubate for 1 hr at 37° C., 5% CO2 • 6. At the end of the incubation period, spin plates at 300×g for 3 mins and remove supernatant • 7. Then add 50 μl of resazurin (Sigma #R7017) (FAC 100 μM resazurin in RPMI medium without FBS) and incubate plates for a further 1-2 hours at 37° C. and 5% CO2 • 8. Plates were read in an Envision reader at Ex 560 nm and Em 590 nm • 9. IC50 data is fitted to a non-linear regression equation (log inhibitor vs response-variable slope 4-parameters)

NLRP3 [2] = biological target: T1, NLRP3; assay: Human whole blood IL-1β release assay (LPS, nigericin, AlphaLisa); format: cell-based; design: Human whole blood in Li-heparin tubes was obtained from healthy donors; from tissue; host or cells: human whole blood from healthy donors; details: 10 μM nigericin
Description: For systemic delivery, the ability to inhibit NLRP3 when the compounds are present within the bloodstream is of great importance. For this reason, the NLRP3 inhibitory activity of a number of compounds in human whole blood was investigated in accordance with the following protocol.
Human whole blood in Li-heparin tubes was obtained from healthy donors from a volunteer donor panel. • 1. Plate out 80 μl of whole blood containing lug/ml of LPS in 96-well, clear bottom cell culture plate (Corning #3585) • 2. Add 10 μl compound (8 points half-log dilution with 10 μM top dose) or vehicle (DMSO 0.1% FAC) to the appropriate wells • 3. Incubate for 3 hours at 37° C., 5% CO2 • 4. Add 10 μl nigericin (Sigma #N7143) (10 μM FAC) to all wells • 5. Incubate for 1 hr at 37° C., 5% CO2 • 6. At the end of the incubation period, spin plates at 300×g for 5 mins to pellet cells and remove 20 μl of supernatant and add to 96-well v-bottom plates for IL-1β analysis (note: these plates containing the supernatants can be stored at −80° C. to be analysed at a later date) • 7. IL-1β was measured according to the manufacturer protocol (Perkin Elmer-AlphaLisa IL-1 Kit AL220F-5000) • 8. IC50 data is fitted to a non-linear regression equation (log inhibitor vs response-variable slope 4-parameters)

T1 sequence (Q96P20 whole entry): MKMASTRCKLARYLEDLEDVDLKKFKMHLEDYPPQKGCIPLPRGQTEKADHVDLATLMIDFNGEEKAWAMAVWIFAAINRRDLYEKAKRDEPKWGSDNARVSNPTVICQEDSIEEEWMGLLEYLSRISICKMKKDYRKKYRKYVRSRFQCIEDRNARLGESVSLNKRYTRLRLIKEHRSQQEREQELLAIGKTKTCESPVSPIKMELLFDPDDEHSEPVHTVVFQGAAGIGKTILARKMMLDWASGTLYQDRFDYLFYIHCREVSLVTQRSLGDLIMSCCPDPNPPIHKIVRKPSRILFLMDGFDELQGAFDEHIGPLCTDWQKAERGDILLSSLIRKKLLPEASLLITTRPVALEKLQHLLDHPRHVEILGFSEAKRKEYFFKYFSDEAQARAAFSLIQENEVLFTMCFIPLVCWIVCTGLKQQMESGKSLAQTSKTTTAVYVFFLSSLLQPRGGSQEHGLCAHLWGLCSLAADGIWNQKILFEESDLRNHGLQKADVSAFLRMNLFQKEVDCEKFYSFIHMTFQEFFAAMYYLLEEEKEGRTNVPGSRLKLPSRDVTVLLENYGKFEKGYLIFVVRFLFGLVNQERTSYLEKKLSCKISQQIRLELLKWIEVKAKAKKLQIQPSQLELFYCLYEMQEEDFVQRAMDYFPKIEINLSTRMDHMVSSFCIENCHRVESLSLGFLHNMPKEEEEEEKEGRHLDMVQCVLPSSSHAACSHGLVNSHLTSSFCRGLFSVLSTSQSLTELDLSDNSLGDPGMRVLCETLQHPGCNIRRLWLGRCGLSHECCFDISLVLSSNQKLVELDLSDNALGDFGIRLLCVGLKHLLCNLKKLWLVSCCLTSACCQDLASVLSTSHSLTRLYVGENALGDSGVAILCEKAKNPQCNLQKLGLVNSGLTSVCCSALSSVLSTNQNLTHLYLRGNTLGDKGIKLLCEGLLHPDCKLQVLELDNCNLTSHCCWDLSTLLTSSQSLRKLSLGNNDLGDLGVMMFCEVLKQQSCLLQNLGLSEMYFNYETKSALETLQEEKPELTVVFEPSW

SMILES	IC50 (NLRP3 [1])	IC50 (NLRP3 [2])
Cc1nc(N[C@@H]2CCCN(C(C)(C)C)C2)nnc1-c1ccc(C(F)(F)F)cc1O (single isomer, unassigned) [Example 10, 2-[3-[[(3R or 3S)-1-tert-Butyl-3-piperidyl]amino]-5-methyl-1,2,4-triazin-6-yl]-5-(trifluoromethyl) phenol]	434 nM	–
Cc1nc(NC2CCCN(C(C)(C)C)C2)nnc1-c1ccc(C(F)(F)F)cc1O (single isomer, unassigned) [Example 11, 2-[3-[[(3S or 3R)-1-tert-Butyl-3-piperidyl]amino]-5-methyl-1,2,4-triazin-6-yl]-5-(trifluoromethyl) phenol]	2.2 nM	15.6 nM
CCN1CCC[C@@H](Nc2ncc(-c3c(C)cc(C(F)(F)F)cc3O)nn2)C1 [Example 1, 2-[3-[[(3R)-1-Ethyl-3-piperidyl]amino]-1,2,4-triazin-6-yl]-3-methyl-5-(trifluoromethyl) phenol; 2,2,2-trifluoroacetic acid]	9 nM	39 nM
Cc1nc(N[C@H]2C[C@@](C)(O)C2)nnc1-c1ccc(C(F)(F)F)cc1O [Example 3, 2-[3-[(3-Hydroxy-3-methyl-cyclobutyl)amino]-5-methyl-1,2,4-triazin-6-yl]-5-(trifluoromethyl) phenol]	107 nM	191 nM
CCN1CCC[C@@H](Nc2nnc(-c3ccc(Cl)cc3O)c(C)n2)C1 [Example 5, 5-Chloro-2-[3-[[(3R)-1-ethyl-3-piperidyl]amino]-5-methyl-1,2,4-triazin-6-yl]phenol]	1.3 nM	3.8 nM
CCN1CCC[C@@H](Nc2nnc(-c3ccc(F)cc3O)c(C)n2)C1 [Example 6, 2-[3-[[(3R)-1-Ethyl-3-piperidyl]amino]-5-methyl-1,2,4-triazin-6-yl]-5-fluoro-phenol]	15.5 nM	14.6 nM
CCN1CCC[C@@H](Nc2nnc(-c3ccc4c(c3O)CC4)c(C)n2)C1 [Example 8, 3-[3-[[(3R)-1-Ethyl-3-piperidyl]amino]-5-methyl-1,2,4-triazin-6-yl]bicyclo[4.2.0]octa-1(6),2,4-trien-2-ol]	0.4 nM	4.3 nM
CCN1CCC[C@@H](Nc2nnc(-c3c(O)cc(C(F)(F)F)cc3F)c(C)n2)C1 [Example 9, 2-[3-[[(3R)-1-Ethyl-3-piperidyl]amino]-5-methyl-1,2,4-triazin-6-yl]-3-fluoro-5-(trifluoromethyl) phenol]	3.5 nM	27.4 nM
CCN1CCC[C@@H](Nc2nnc(-c3ccc(C#N)cc3O)c(C)n2)C1 [Example 12, 4-[3-[[(3R)-1-Ethyl-3-piperidyl]amino]-5-methyl-1,2,4-triazin-6-yl]-3-hydroxy-benzonitrile]	20.5 nM	23.9 nM
Cc1nc(N[C@@H]2C[C@H](F)CN(C)C2)nnc1-c1ccc(C(F)(F)F)cc1O [Example 13, 2-[3-[[(3R,5S)-5-Fluoro-1-methyl-3-piperidyl]amino]-5-methyl-1,2,4-triazin-6-yl]-5-(trifluoromethyl) phenol]	77 nM	–
Cc1nc(NC2CCCn3ccnc32)nnc1-c1ccc(C(F)(F)F)cc1O (centres unmarked) [Example 14, 2-[5-Methyl-3-(5,6,7,8-tetrahydroimidazo[1,2-a]pyridin-8-ylamino)-1,2,4-triazin-6-yl]-5-(trifluoromethyl) phenol]	350 nM	–
Cc1nc(N[C@@H]2CCCN(C)C2)nnc1-c1ccc(F)cc1O [Example 15, 5-Fluoro-2-[5-methyl-3-[[(3R)-1-methyl-3-piperidyl]amino]-1,2,4-triazin-6-yl]phenol]	18.3 nM	15.1 nM
Cc1nc(N[C@@H]2CCCN(C)C2)nnc1-c1ccc(Cl)cc1O [Example 16, 5-Chloro-2-[5-methyl-3-[[(3R)-1-methyl-3-piperidyl]amino]-1,2,4-triazin-6-yl]phenol]	1.5 nM	13.2 nM

Continued, values first:

IC50 (NLRP3 [1])	IC50 (NLRP3 [2])	SMILES
5.1 nM	–	Cc1nc(N[C@H]2CCCN3CCC[C@H]23)nnc1-c1ccc(C(F)(F)F)cc1O (racemic) [Example 26, 2-[5-Methyl-3-[[rac-(8S,8aR)-1,2,3,5,6,7,8,8a-octahydroindolizin-8-yl]amino]-1,2,4-triazin-6-yl]-5-(trifluoromethyl) phenol]
20.9 nM	–	Cc1nc(N[C@H]2CCCN3CCC[C@@H]23)nnc1-c1ccc(C(F)(F)F)cc1O (racemic) [Example 27, 2-[5-Methyl-3-[[rac-(8S,8aS)-1,2,3,5,6,7,8,8a-octahydroindolizin-8-yl]amino]-1,2,4-triazin-6-yl]-5-(trifluoromethyl) phenol]
2.4 nM	18.8 nM	Cc1nc(NC2CCCN3CCCC23)nnc1-c1ccc(C(F)(F)F)cc1O (single isomer, unassigned) [Example 28]
163 nM	–	Cc1nc(NC2CCCN3CCCC23)nnc1-c1ccc(C(F)(F)F)cc1O (single isomer, unassigned) [Example 29]
> 1000 nM	–	Cc1nc(NC2CCC3CCCN3C2)nnc1-c1ccc(C(F)(F)F)cc1O (single isomer, unassigned) [Example 31, 2-[3-[[(6S or 6R,8aS or 8aR)-1,2,3,5,6,7,8,8a-octahydroindolizin-6-yl]amino]-5-methyl-1,2,4-triazin-6-yl]-5-(trifluoromethyl) phenol]
16.1 nM	36.5 nM	Cc1nc(NC2CCC3CCCN3C2)nnc1-c1ccc(C(F)(F)F)cc1O (single isomer, unassigned) [Example 32, 2-[3-[[(6R or 6S,8aS or 8aR)-1,2,3,5,6,7,8,8a-octahydroindolizin-6-yl]amino]-5-methyl-1,2,4-triazin-6-yl]-5-(trifluoromethyl) phenol]
46.1 nM	300 nM	Cc1nc(NC2CCC3CCCN3C2)nnc1-c1ccc(C(F)(F)F)cc1O (single isomer, unassigned) [Example 33, 2-[3-[[(6S or 6R,8aR or 8aS)-1,2,3,5,6,7,8,8a-octahydroindolizin-6-yl]amino]-5-methyl-1,2,4-triazin-6-yl]-5-(trifluoromethyl) phenol]
209 nM	–	Cc1nc(NC2CCC3CCCN3C2)nnc1-c1ccc(C(F)(F)F)cc1O (single isomer, unassigned) [Example 34, 2-[3-[[(6R or 6S, 8aR or 8aS)-1,2,3,5,6,7,8,8a-octahydroindolizin-6-yl]amino]-5-methyl-1,2,4-triazin-6-yl]-5-(trifluoromethyl) phenol]
13.4 nM	46.5 nM	Cc1nc(N[C@@H]2CCCNC2)nnc1-c1ccc(C(F)(F)F)cc1O [Example 17, 2-[5-Methyl-3-[[(3R)-3-piperidyl]amino]-1,2,4-triazin-6-yl]-5-(trifluoromethyl) phenol]
1 nM	20.2 nM	Cc1nc(N[C@@H]2CCCN(C)C2)nnc1-c1ccc(C(F)(F)F)cc1O [Example 18, 2-[5-Methyl-3-[[(3R)-1-methyl-3-piperidyl]amino]-1,2,4-triazin-6-yl]-5-(trifluoromethyl) phenol]
32.2 nM	228 nM	Cc1nc(N[C@@H]2CCCC[C@H]2O)nnc1-c1ccc(C(F)(F)F)cc1O [Example 19, 2-[3-[[(1R,2R)-2-Hydroxycyclohexyl]amino]-5-methyl-1,2,4-triazin-6-yl]-5-(trifluoromethyl) phenol]
111 nM	–	CCN1CCC[C@@H](Nc2nnc(-c3ccc(C(F)(F)F)cc3O)c(C(F)(F)F)n2)C1 [Example 30, 2-[3-[[(3R)-1-Ethyl-3-piperidyl]amino]-5-(trifluoromethyl)-1,2,4-triazin-6-yl]-5-(trifluoromethyl) phenol; 2,2,2-trifluoroacetic acid]
